According to patent US10076246B2, “Method and apparatus for noninvasive quantitative detection of fibrosis in normal and viable myocardium by MRI” (Oregon Health & Science University, priority 2007, dated 2018):

How the values were obtained:
[1] = Ex-vivo contrast-enhanced MRI (3 Tesla, T1 inversion recovery) measurement of gadodiamide partition coefficient / relative distribution volume in postmortem myocardium samples; assay type: in vitro ADME, human; settings: 24 hours incubation in ~3 mM gadodiamide-saline solution
Description: As an example of the above-described methodology, eight samples of human myocardium were obtained postmortem and a fast spin-echo sequence (3 Tesla) with non-slice selective inversion pulse performed before and after immersion in a gadodiamide saline solution for determination of the gadodiamide partition coefficient. T1 values were calculated from the inversion recovery signal curves. The same samples were fixed in formalin, and the collagen volume fraction was determined by the picrosirius red method using a semi-automated, polarized, digital microscopy system. […] Moreover, there was a significant positive correlation between the two methods, across all three histological categories of myocardial fibrosis (r=0.73; p=0.017). Thus, these findings indicate an expanded potential for contrast enhanced MRI as a novel, non-invasive alternative to histological evaluation, for the quantification of both interstitial and replacement myocardial fibrosis.
In accordance with an exemplary embodiment as outlined briefly above, eight samples of myocardium were obtained from deceased patients. Each sample of ventricular myocardium was 1 to 2 cm in thickness, and cut at the mid-level of the ventricular septum to include left and right ventricular free walls. All samples were stored at −80° C. until time of analysis.
A pre-contrast MRI was performed approximately 10-12 hours after thawing each sample. […] The longitudinal relaxation time T1 of myocardial tissue and saline was measured with a spin-echo MRI pulse sequence with non-slice-selective inversion pulse, and for 12-15 inversion delays (inversion times in the range from T1=50 to 2000 ms). […]
After the first MRI scan, the sample was incubated at 3-4° C. in a gadodiamide—saline solution for 24 hours (initial gadodiamide concentration in saline before immersion of tissue slice was ˜3 mM; saline R1 at 3 Tesla after 24 hours incubation: 3.9±0.3 s^−1). […] The effects of duration of thawing were also evaluated. […] Accordingly, these two sets of samples with different durations of thawing were analyzed separately. […]

[2] = at 37° C.; cited from earlier work

mean gadodiamide distribution volume (with 95% confidence interval) ([1]; interstitial fibrosis myocardium): 0.43+/−0.22
mean gadodiamide distribution volume (with 95% confidence interval) ([1]; normal myocardium): 0.17+/−0.05
mean gadodiamide distribution volume (with 95% confidence interval) ([1]; replacement fibrosis myocardium): 0.46+/−0.05
SMILES: CNC(=O)CN(CCN(CCN(CC(=O)[O-])CC(=O)NC)CC(=O)[O-])CC(=O)[O-].[Gd+3] [gadodiamide]
osmolality [2]: 789 mOsmol/kg water
